Experimental data published in patent publication US9351963B2, “Defensin-like molecules as novel antimicrobial agents” (UNIVERSITY OF MARYLAND, BALTIMORE, priority 2010, dated 2016).

How the values were obtained:
[1] = system: Staphylococcus aureus ATCC 29213; assay: 96-well turbidimetric antibacterial killing assay, S. aureus; format: cell-based
Method: The antibacterial activity of defensin mimetics against Staphylococcus aureus ATCC 29213 and Escherichia coli 25922 was carried out in a 96-well turbidimetric assay essentially as described (Ericksen, B., Wu, Z., Lu, W., and Lehrer, R. I. (2005) Antimicrob Agents Chemother 49, 269-275) with the following modifications: compounds were exposed for 30 min to […] prior to addition of […] in 10 mM phosphate buffer containing 5% DMSO. Bacterial growth was monitored for 12 hours and data were analyzed as described (Ericksen, et al). Determination of MICs was performed by Micromyx, LLC (Kalamazoo, Mich.) according to CLSI standards (CLSI. (2009) Methods for Dilution Antimicrobial Susceptibility Tests for Bacteria That Grow Aerobically; Approved Standard—Eighth Edition.)

[2] = system: S. aureus ATCC 29213; assay: Murine peritoneal sepsis model; format: in vivo, C57BL/6J mice
Method: Adult C57BL/6J mice (˜18 grams, 8-10 weeks old) were used for all experiments. Mice were obtained from the Jackson Laboratory (Bar Harbour, Me., USA) and housed in the IHV SPC animal core facility. Mice were fed standard chow (Harlan Laboratories) and water ad libitum. To assess the protective potency of defensin mimetic BAS00127538, groups of 5 mice were inoculated intraperitoneally ˜10^7 CFU/mL of S. aureus ATCC 29213 in 500 μL saline solution/25% DMSO plus 4.5% (w/v) porcine gastric mucin (Sigma Chemical Co., St Louis, Mo.). Infected animals (n=5) were subsequently treated by intra-peritoneal injection 1 and 4 hours post-infection with 2.5 mg/kg of compound in 100 μL sterile saline solution plus 25% DMSO (V/V), vancomycin/lysostaphin (5 mg/kg, saline solution/25% DMSO) or vehicle (saline solution/25% DMSO) as positive and negative controls respectively. Animals were closely observed during a period of 24 hours and mice that show signs of severe sepsis were humanely euthanized. Blood samples were collected by retro-orbital puncture at the indicated intervals post-infection using lithium-heparin polystyrene tubes to prevent coagulation. Spleens were harvested aseptically, weighed and homogenized in 500 μl of sterile saline solution using an IKA T10 basic disperser (IKA, Wilmington N.C.). Whole blood samples and spleen homogenates were serially diluted and plated onto LB agar plates. Bacterial counts were determined following 24 h incubation at 37° C. and expressed as CFU per milliliter for blood and CFU per gram for spleen.
Next, a murine model for sepsis was established to evaluate the efficacy of the lead defensin mimetics as antibiotic agents in vivo. […] Mice (n=5) were inoculated intraperitoneally with S. aureus 29213 and treated 1 h and 4 h post-infection with compound BAS00127538 at 2.5 mg/kg intraperitoneally Animals were monitored for survival and blood and spleen samples were collected. Bacterial counts were determined and compared to control treatment with vancomycin/lysostaphin as measures of efficacy (FIG. 6).

CN1/C(=C/C=C/c2cc(-c3ccccc3)cc(-c3ccccc3)[o+]2)C(C)(C)c2ccccc21 [BAS00127538, 2,4-diphenyl-6-[(1E)-3-[(2E)-1,3,3-trimethyl-2,3-dihydro-1H-indol-2-ylidene]prop-1-en-1-yl]-1$1^4-pyran-1-ylium]
Concentration at which compound was 100% bactericidal against S. aureus [1]: 0.244 µM | Bacterial counts in spleen and blood ([2]; 2.5 mg/kg intraperitoneally 1 h and 4 h post-infection): significantly reduced | Survival of animals ([2]; 2.5 mg/kg intraperitoneally 1 h and 4 h post-infection, n=5 mice): 4 out of five | Efficacy in vivo in a murine model for sepsis ([2]; mouse, in vivo): proven effective
